Like-named read-outs stand apart in the source and are kept apart here.
Columns and labels:
[1] = target: T1, GPR139 (Homo sapiens, UniProt Q6DWJ6); experiment: GPR139 Agonist titration / agonist counterscreen assay (calcium detection, HEK-GPR139 cells); type: cell-based; design: expressed in transfected cells; host or cells: HEK Aequorin cells, Maxcyte transient transfection; settings: GPR139 Agonist Activity; for EC50: read-out: EC50; for Averaged Max % Response (±St. Dev.): activity relative to known control
T1 sequence (Q6DWJ6 1-353): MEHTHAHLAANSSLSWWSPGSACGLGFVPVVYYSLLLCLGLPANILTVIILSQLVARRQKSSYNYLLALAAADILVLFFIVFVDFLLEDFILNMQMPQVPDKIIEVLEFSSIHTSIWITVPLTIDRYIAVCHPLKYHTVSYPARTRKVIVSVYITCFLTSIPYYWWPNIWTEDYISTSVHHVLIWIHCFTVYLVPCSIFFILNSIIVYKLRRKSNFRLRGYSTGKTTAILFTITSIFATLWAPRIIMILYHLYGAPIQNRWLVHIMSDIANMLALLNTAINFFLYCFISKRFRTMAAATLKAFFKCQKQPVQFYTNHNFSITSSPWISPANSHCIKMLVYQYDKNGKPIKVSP
Method: GPR activity was assessed using a calcium detection assay. […] Negative control samples were treated with DMSO. […] Intracellular calcium was measured using Calcium 5.

[2] = system: parental HEK cells; experiment: HEK parental Agonist Counterscreen Assay (non-transfected cells); type: cell-based; settings: for Averaged Max % Response (±St. Dev.): activity relative to known control
Description: The high control for the agonist counterscreen was Forskolin not acetylcholine.

[3] = Homo sapiens, HEK293, HEK Agonist Activity section of Table 4 (parental HEK counterscreen)
[4] = values printed in E-notation without unit
[5] = HEK Agonist Activity section of Table 4 (parental HEK counterscreen)
[6] = Homo sapiens, HEK293, HEK Agonist Activity, parental non-transfected HEK cells
[7] = HEK Agonist Activity, parental non-transfected HEK cells

| SMILES | Efficiency Ligand [1] | Hill Slope [1] | Lipophilic Efficiency (logD) [1] | Lipophilic Efficiency (logP) [1] | EC50 ([1]; HEK-GPR139 cells) [nM] | Averaged Max % Response (±St. Dev.) [1] [%] | Lipophilic Efficiency (logD) ([2]; HEK Agonist Activity section) | Lipophilic Efficiency (logP) ([2]; HEK Agonist Activity section) | Averaged Max % Response (±St. Dev.) ([2]; HEK Agonist Activity section) [%] | EC50 [2, 3] [nM] | Lipophilic Efficiency (logD) ([1]; based on logD) | Lipophilic Efficiency (logP) ([1]; based on logP) | Hill Slope ([1]; fitted dose-response curve) | Efficiency Ligand ([1]; ligand efficiency) | EC50 [1, 4] [nM] | EC50 [2, 5] [nM] | further results |
| --- | --- | --- | --- | --- | --- | --- | --- | --- | --- | --- | --- | --- | --- | --- | --- | --- | --- |
| O=C(Cn1nnc2c1-c1ccccc1OC2)Nc1cccc(Cl)c1 [SR-01000135042] | 0.37 | 0.33 | 3.32 | 3.32 | 401 | 104.44 ± 8.42 | 1.77 | 1.77 | 16.89 ± 7.08 | > 14100 | – | – | – | – | – | – | – |
| O=C(Cn1ncc2c1-c1ccccc1OC2)Nc1ccccn1 [SR-01000135048] | – | – | – | – | – | 109.25 ± 4.64 | 3.00 | 3.00 | 12.06 ± 16.35 | > 14100 | 4.72 | 4.72 | 1.29 | 0.40 | 266 | – | – |
| Cc1ccc(NC(=O)Cn2ncc3c2-c2ccccc2OC3)cc1F [SR-01000135068] | – | – | – | – | – | 114.56 ± 16.65 | 1.72 | 1.72 | −6.35 ± 1.52 | > 14100 | 4.08 | 4.08 | 0.14 | 0.40 | 61.5 | – | – |
| COc1ccc(NC(=O)Cn2ncc3c2-c2ccccc2OC3)cc1Cl [SR-01000135070] | – | – | – | – | – | 89.37 ± 8.48 | 1.93 | 1.93 | 7.87 ± 13.27 | – | 4.16 | 4.16 | 0.51 | 0.38 | 82.9 | > 14100 | – |
| Cc1ccc2c(c1)-c1c(cnn1CC(=O)Nc1ccc(F)cc1)CO2 [SR-01000136273] | 0.31 | 0.56 | 2.47 | 2.47 | 2500 | 78.44 ± 11.98 | 1.72 | 1.72 | −14.31 ± 5.07 | – | – | – | – | – | – | > 14100 | – |
| Cc1ccc(CCNC(=O)Cn2cc3c(n2)CCCC3)cc1 [SR-01000137723] | – | – | – | – | – | 136.99 ± 21.58 | – | – | – | – | 5.09 | 5.09 | 0.44 | 0.52 | 5.7 | – | Lipophilic Efficiency (logD) ([2]; HEK Agonist Activity): 1.70; Lipophilic Efficiency (logP) ([2]; HEK Agonist Activity): 1.70; Averaged Max % Response (±St. Dev.) ([2]; HEK Agonist Activity): −4.03 ± 1.74%; EC50 [2, 6]: > 14100 nM |
| CC(CCc1ccccc1)NC(=O)Cn1cc2c(n1)CCCC2 (centres unmarked) [SR-01000137757] | – | – | – | – | – | 160.07 ± 33.89 | – | – | – | – | 4.32 | 4.32 | 0.09 | 0.48 | 15.3 | – | Lipophilic Efficiency (logD) ([2]; HEK Agonist Activity): 1.35; Lipophilic Efficiency (logP) ([2]; HEK Agonist Activity): 1.35; Averaged Max % Response (±St. Dev.) ([2]; HEK Agonist Activity): −12.95 ± 5.94%; EC50 [2, 6]: > 14100 nM |
| Cc1c2cnn(CC(=O)NC(C)c3ccccc3)c(=O)c2c(C)n1Cc1ccc(F)cc1 (centres unmarked) [SR-01000138428] | – | – | – | – | – | 81.78 ± 16.61 | – | – | – | – | 4.85 | 4.85 | – | 0.38 | – | – | Lipophilic Efficiency (logD) ([2]; HEK Agonist Activity): 1.03; Lipophilic Efficiency (logP) ([2]; HEK Agonist Activity): 1.03; Averaged Max % Response (±St. Dev.) ([2]; HEK Agonist Activity): −0.31 ± 7.41%; EC50 [2, 7]: > 14100 nM |
| COc1cc(-c2noc(CCC(=O)Nc3cccc(C)c3C)n2)cc(OC)c1OC [SR-01000139458] | 0.29 | 1.12 | 2.20 | 2.20 | 556 | 116.90 ± 31.97 | 0.80 | 0.80 | 16.10 ± 9.95 | – | – | – | – | – | – | > 14100 | – |
| CNc1ccc(CCNC(=O)Cn2c3ccccc3c3nc(=O)cc(C)n32)cc1 [SR-01000139601] | 0.31 | 0.85 | 3.57 | 3.57 | 416 | 109.30 ± 18.80 | 2.04 | 2.04 | −14.37 ± 9.70 | > 14100 | – | – | – | – | – | – | – |
| Cc1nn(CC(=O)NC2CCCc3ccccc32)c(=O)c2c1sc1ccccc12 (centres unmarked) [SR-01000139982] | 0.29 | 0.79 | 2.38 | 2.38 | 890 | 89.89 ± 26.17 | 1.18 | 1.18 | 9.26 ± 7.81 | > 14100 | – | – | – | – | – | – | – |
| O=C(Cn1ncn2cccc2c1=O)NCCc1ccc(Cl)cc1 [SR-01000140172] | 0.40 | 0.89 | 5.11 | 5.11 | 278 | 113.63 ± 31.77 | 3.41 | 3.41 | 2.22 ± 10.07 | – | – | – | – | – | – | > 14100 | – |
| CC(C(=O)NCCc1ccc(Cl)cc1)n1ncn2cccc2c1=O (centres unmarked) [SR-01000140260] | – | – | – | – | – | 114.94 ± 7.97 | – | – | – | – | 6.86 | 6.86 | 0.54 | 0.52 | 1.3 | – | Lipophilic Efficiency (logD) ([2]; HEK Agonist Activity): 2.84; Lipophilic Efficiency (logP) ([2]; HEK Agonist Activity): 2.84; Averaged Max % Response (±St. Dev.) ([2]; HEK Agonist Activity): 19.72 ± 7.61%; EC50 [2, 7]: > 14100 nM |
| CC(=O)N1CCSc2cc(S(=O)(=O)NC3CCC(C)CC3)ccc21 (centres unmarked) [SR-01000141798] | 0.31 | 0.65 | 3.15 | 3.15 | 4600 | 62.31 ± 7.50 | 2.66 | 2.66 | 2.60 ± 1.15 | > 14100 | – | – | – | – | – | – | – |
| CC(C(=O)NCCC1=CCCCC1)n1c(=O)c2cccn2c2ccccc21 (centres unmarked) [SR-01000142419] | – | – | – | – | – | 123.62 ± 30.65 | 2.10 | 2.10 | −9.79 ± 12.86 | > 14100 | 4.22 | 4.22 | 0.32 | 0.36 | 106 | – | – |
| O=C(CC(C(=O)N1CCc2ccccc21)n1ccnc1)NCC1COc2ccccc2O1 (centres unmarked) [SR-01000144615] | – | – | – | – | – | 108.00 ± 3.42 | – | – | – | – | 6.43 | 6.38 | 4.63 | 0.35 | 10.3 | – | Lipophilic Efficiency (logD) ([2]; HEK Agonist Activity): 3.29; Lipophilic Efficiency (logP) ([2]; HEK Agonist Activity): 3.24; Averaged Max % Response (±St. Dev.) ([2]; HEK Agonist Activity): −9.40 ± 4.48%; EC50 [2, 6]: > 14100 nM |
| O=C(CC(C(=O)N1CCc2ccccc21)n1ccnc1)N1CCCCCC1 (centres unmarked) [SR-01000144627] | – | – | – | – | – | 93.44 ± 12.43 | 3.15 | 3.09 | 28.51 ± 2.67 | > 14100 | 4.94 | 4.88 | 1.08 | 0.34 | 229 | – | – |
| O=C(CN1N=C(c2ccc(Cl)cc2)CCC1=O)NCCN1CCc2ccccc2C1 [SR-01000145135] | 0.30 | 0.84 | 4.49 | 4.01 | 301 | 81.84 ± 7.77 | 2.82 | 2.34 | −17.80 ± 4.24 | – | – | – | – | – | – | > 14100 | – |
| Cc1ccc(CCNC(=O)Cn2nc(-c3ccccc3)ccc2=O)cc1 [SR-01000145157] | – | – | – | – | – | 83.58 ± 17.45 | 1.85 | 1.85 | 17.61 ± 4.99 | – | 3.85 | 3.85 | 0.58 | 0.37 | 140 | > 14100 | – |

From US20250099420A1, “SMALL MOLECULE MODULATORS OF GPR139 COMPLEX” (University of Florida Research Foundation, Incorporated, priority 2022, published 2025)
